# Measurements: US11457629B2, “Heteroarylphenylaminoquinolines and analogues” (Bayer Aktiengesellschaft, priority 2017, dated 2022)
# Read-outs that look alike come from different tables or passages of the source.
# Key:
# [1] = system: Leptnosphaeria nodorum; test: Example D: Leptnosphaeria nodorum in vitro cell test; format: cell-based; conditions: 144 h, read-out: efficacy (inhibition of fungal growth)
# [2] = system: Pyricularia oryzae; test: microbe, parasite or virus in culture; format: cell-based; conditions: 120 h, read-out: efficacy (inhibition of fungal growth)
# [3] = Log P by HPLC on reversed phase columns, method [a] (acidic range, 0.1% formic acid)
# Procedure: In the following, measurement of Log P values was performed according to EEC directive 79/831 Annex V.A8 by HPLC (High Performance Liquid Chromatography) on reversed phase columns with the following methods: • ^[a]
# If more than one Log P value is available within the same method, all the values are given and separated by “+”.
# Calibration was done with straight-chain alkan2-ones (with 3 to 16 carbon atoms) with known Log P values (measurement of Log P values using retention times with linear interpolation between successive alkanones).
# [4] = system: Colletotrichum lindemuthianum; test: Example F: Colletotrichum lindemuthianum in vitro cell test; format: cell-based; conditions: 144 h, read-out: efficacy (inhibition of fungal growth)
# [5] = system: Botrytis cinerea; test: Example H: comparative data, in vivo preventive test on Botrytis cinerea (grey mould), gherkin; conditions: rate of application 500 ppm, evaluated 4 to 5 days after inoculation
# [6] = system: Leptnosphaeria nodorum; test: Example I: comparative data, Leptnosphaeria nodorum in vitro cell test; format: cell-based; conditions: rate of application 4 ppm; 6 days incubation
# [7] = system: Ustilago avenae; test: Example J: comparative data, Ustilago avenae in vitro cell test; format: cell-based; conditions: rate of application 20 ppm; 4 days incubation
# [8] = logP, HPLC on reversed phase columns, method [a]: acidic range
# [9] = LogP, method [a] / Method A: LC-UV, acidic range
# [10] = 20 ppm of active ingredient, 6 days incubation
smiles,measurement,setting,value
"Cc1nc2c(F)c(F)ccc2cc1Nc1ccccc1-c1ccn(C(C)C)n1 [Example I-043, 7,8-difluoro-N-[2-(1-isopropylpyrazol-3-yl)phenyl]-2-methyl-quinolin-3-amine]",inhibition at 20 ppm,[1],80 to 89%
same,inhibition at 20 ppm,[2],90 to 100%
same,chromatographic logP,[3]; [8],5
"Cc1nc2c(F)c(F)ccc2cc1N(C)c1ccccc1-c1ccn(C(C)C)n1 [Example I-046, 7,8-difluoro-N-[2-(1-isopropylpyrazol-3-yl)phenyl]-N,2-dimethyl-quinolin-3-amine]",inhibition at 20 ppm,[2],80 to 89%
same,chromatographic logP,[3]; [9],4.36
same,chromatographic logP,[3]; [8],4.36
"Cc1nc2c(F)c(F)ccc2cc1Nc1cccc(F)c1-c1ccnn1C [Example I-050, 7,8-difluoro-N-[3-fluoro-2-(1-methyl-1H-pyrazol-5-yl)phenyl]-2-methylquinolin-3-amine]",inhibition at 20 ppm,[1]; [10],90 to 100%
same,inhibition at 20 ppm,[2],90 to 100%
same,inhibition at 20 ppm,[4]; [10],90 to 100%
same,chromatographic logP,[3]; [9],3.07
same,chromatographic logP,[3]; [8],3.09
"COC(=O)c1ccn(-c2ccccc2Nc2cnc3ccccc3c2)n1 [Example I-062, methyl 1-[2-(3-quinolylamino)phenyl]pyrazole-3-carboxylate]",chromatographic logP,[3]; [9],2.16
same,chromatographic logP,[3]; [8],2.16
"COC(=O)c1ccnn1-c1ccccc1Nc1cnc2ccccc2c1 [Example I-064, methyl 1-[2-(quinolin-3-ylamino)phenyl]-1H-pyrazole-5-carboxylate]",inhibition at 20 ppm,[1]; [10],70 to 79%
same,inhibition at 20 ppm,[4]; [10],80 to 89%
same,chromatographic logP,[3]; [9],2.02
same,chromatographic logP,[3]; [8],2.02
C=C(C)c1ccnn1-c1ccccc1Nc1cnc2ccccc2c1 [Example I-066],inhibition at 20 ppm,[1],90 to 100%
same,inhibition at 20 ppm,[2],90 to 100%
same,inhibition at 20 ppm,[4],80 to 89%
same,Efficacy in %,[5],98%
same,Efficacy in %,[6],94%
same,Efficacy in %,[7],63%
same,chromatographic logP,[3]; [8],2.73
CC(C)n1ccc(-c2c(F)cccc2Nc2cnc3ccccc3c2)n1 [Example I-067],Efficacy in %,[5],95%
same,logP,"[3]; HPLC on reversed phase columns, method [a]: acidic range",1.94 ^[a]
"CC(C)(C)[Si](C)(C)OCc1ccnn1-c1ccccc1Nc1cnc2ccccc2c1 [Example I-069, N-{2-[5-({[tert-butyl(dimethyl)silyl]oxy}methyl)-1H-pyrazol-1-yl]phenyl}quinolin-3-amine]",inhibition at 20 ppm,[1]; [10],80 to 89%
same,chromatographic logP,[3]; [9],4.92
same,chromatographic logP,[3]; [8],4.92
"CCn1nccc1-c1ccccc1Nc1cnc2c(F)cccc2c1 [Example I-080, N-[2-(1-ethyl-1H-pyrazol-5-yl)phenyl]-8-fluoroquinolin-3-amine]",inhibition at 20 ppm,[1]; [10],90 to 100%
same,inhibition at 20 ppm,[2],80 to 89%
same,inhibition at 20 ppm,[4]; [10],90 to 100%
same,chromatographic logP,[3]; [9],2.82
same,chromatographic logP,[3]; [8],2.84
"Cc1nc2ccccc2nc1Nc1cccc(F)c1-c1ccnn1C [Example I-083, N-[3-fluoro-2-(1-methyl-1H-pyrazol-5-yl)phenyl]-3-methylquinoxalin-2-amine]",inhibition at 20 ppm,[1]; [10],90 to 100%
same,inhibition at 20 ppm,[2],90 to 100%
same,inhibition at 20 ppm,[4]; [10],90 to 100%
same,chromatographic logP,[3]; [9],2.82
same,chromatographic logP,[3]; [8],2.82
"Fc1cccc2cc(Nc3ccccc3-c3ccnn3Cc3ccccc3)cnc12 [Example I-096, N-[2-(1-benzyl-1H-pyrazol-5-yl)phenyl]-8-fluoroquinolin-3-amine]",inhibition at 20 ppm,[1]; [10],90 to 100%
same,inhibition at 20 ppm,[2],90 to 100%
same,inhibition at 20 ppm,[4]; [10],90 to 100%
same,chromatographic logP,[3]; [9],3.49
same,chromatographic logP,[3]; [8],3.49
"Cn1nccc1-c1c(F)cccc1Br [IXa-01, 5-(2-bromo-6-fluorophenyl)-1-methyl-1H-pyrazole]",chromatographic logP,[3]; [9],2.4
"CC(C)n1nccc1-c1c(F)cccc1Br [IXa-02, 5-(2-bromo-6-fluorophenyl)-1-isopropyl-1H-pyrazole]",chromatographic logP,[3]; [9],3.09
"CC(C)(C)n1nccc1-c1c(F)cccc1Br [IXa-03, 5-(2-bromo-6-fluorophenyl)-1-tert-butyl-1H-pyrazole]",chromatographic logP,[3]; [9],3.61
"CCn1nccc1-c1c(F)cccc1Br [IXa-04, 5-(2-bromo-6-fluorophenyl)-1-ethyl-1H-pyrazole]",chromatographic logP,[3]; [9],2.71
"Fc1cccc(Br)c1-c1ccnn1CCc1ccccc1 [IXa-05, 5-(2-bromo-6-fluorophenyl)-1-(2-phenylethyl)-1H-pyrazole]",chromatographic logP,[3]; [9],3.83
"OCc1ccnn1-c1c(F)cccc1Br [IXb-01, [1-(2-bromo-6-fluorophenyl)-1H-pyrazol-5-yl]methanol]",chromatographic logP,[3]; [9],1.27
"CC(C)(C)[Si](C)(C)OCc1ccnn1-c1c(F)cccc1Br [IXb-02, 1-(2-bromo-6-fluorophenyl)-5-({[tert-butyl(dimethyl)silyl]oxy}methyl)-1H-pyrazole]",chromatographic logP,[3]; [9],4.96
"COC(=O)c1ccnn1-c1c(F)cccc1Br [IXb-03, methyl 1-(2-bromo-6-fluorophenyl)-1H-pyrazole-5-carboxylate]",chromatographic logP,[3]; [9],2.53
"CC(C)(C)[Si](C)(C)OCc1ccnn1-c1c(N)cccc1F [IXb-04, 2-[5-({[tert-butyl(dimethyl)silyl]oxy}methyl)-1H-pyrazol-1-yl]-3-fluoroaniline]",chromatographic logP,[3]; [9],4.1
Fc1cccc2cc(Nc3ccccc3Br)cnc12 [N-(2-bromophenyl)-8-fluoro-quinolin-3-amine],chromatographic logP,[3]; [9],3.27
"CC1(C)OB(c2ccccc2Nc2cnc3c(F)cccc3c2)OC1(C)C [VI-01, 8-fluoro-N-[2-(4,4,5,5-tetramethyl-1,3,2-dioxaborolan-2-yl)phenyl]quinolin-3-amine]",chromatographic logP,[3]; [9],4.87
"CC1(C)OB(c2ccccc2Nc2cnc3ccccc3c2)OC1(C)C [VI-02, N-[2-(4,4,5,5-tetramethyl-1,3,2-dioxaborolan-2-yl)phenyl]quinolin-3-amine]",chromatographic logP,[3]; [9],4.29
"CC1(C)OB(c2ccccc2Cc2cnc3ccccc3c2)OC1(C)C [VI-03, 3-[2-(4,4,5,5-tetramethyl-1,3,2-dioxaborolan-2-yl)benzyl]quinoline]",chromatographic logP,[3]; [9],3.39
"CC(C)(C)OC(=O)N(c1cnc2ccccc2c1)c1ccccc1-n1nccc1C(=O)O [XX-01, 1-{2-[(tert-butoxycarbonyl)(quinolin-3-yl)amino]phenyl}-1H-pyrazole-5-carboxylic acid]",chromatographic logP,[3]; [9],2.42
"CC(C)(C)OC(=O)N(c1cnc2ccccc2c1)c1cccc(F)c1-n1nccc1C(=O)O [XX-02, 1-{2-[(tert-butoxycarbonyl)(quinolin-3-yl)amino]-6-fluorophenyl}-1H-pyrazole-5-carboxylic acid]",chromatographic logP,[3]; [9],2.62
"COC(=O)c1ccnn1-c1c(F)cccc1N(C(=O)OC(C)(C)C)c1cnc2ccccc2c1 [XX-03, methyl 1-{2-[(tert-butoxycarbonyl)(quinolin-3-yl)amino]-6-fluorophenyl}-1H-pyrazole-5-carboxylate]",chromatographic logP,[3]; [9],3.36
"C=C(C)c1ccnn1-c1ccccc1N(C(=O)OC(C)(C)C)c1cnc2ccccc2c1 [XX-04, tert-butyl {2-[5-(prop-1-en-2-yl)-1H-pyrazol-1-yl]phenyl}quinolin-3-ylcarbamate]",chromatographic logP,[3]; [9],3.67
"COC(=O)c1ccnn1-c1ccccc1N(C(=O)OC(C)(C)C)c1cnc2ccccc2c1 [XX-05, Methyl 1-(2-(tert-butoxycarbonyl(quinolin-3-yl)amino)phenyl)-1H-pyrazole-5-carboxylate]",chromatographic logP,[3]; [9],3.19
"CC(C)(C)OC(=O)N(c1cnc2ccccc2c1)c1ccccc1-n1nccc1C=O [XX-06, tert-butyl [2-(5-formyl-1H-pyrazol-1-yl)phenyl]quinolin-3-ylcarbamate]",chromatographic logP,[3]; [9],3.06
"CC(C)(C)OC(=O)N(c1cnc2ccccc2c1)c1ccccc1-n1nccc1CO[Si](C)(C)C(C)(C)C [XX-07, tert-butyl {2-[5-({[tert-butyl(dimethyl)silyl]oxy}methyl)-1H-pyrazol-1-yl]phenyl}quinolin-3-ylcarbamate]",chromatographic logP,[3]; [9],5.84
"CC(C)(C)OC(=O)N(c1cnc2ccccc2c1)c1cccc(F)c1-n1nccc1CO [XX-08, tert-butyl {3-fluoro-2-[5-(hydroxymethyl)-1H-pyrazol-1-yl]phenyl}quinolin-3-ylcarbamate]",chromatographic logP,[3]; [9],2.47
"CC(C)(C)OC(=O)N(c1cnc2ccccc2c1)c1cccc(F)c1-n1nccc1CO[Si](C)(C)C(C)(C)C [XX-09, tert-butyl {2-[5-({[tert-butyl(dimethyl)silyl]oxy}methyl)-1H-pyrazol-1-yl]-3-fluorophenyl}quinolin-3-ylcarbamate]",chromatographic logP,[3]; [9],5.8
"CC(C)(C)OC(=O)N(c1cnc2ccccc2c1)c1cccc(F)c1-n1nccc1C=O [XX-10, tert-butyl [3-fluoro-2-(5-formyl-1H-pyrazol-1-yl)phenyl]quinolin-3-ylcarbamate]",chromatographic logP,[3]; [9],3.24
"CC(C)(C)OC(=O)N(c1cnc2ccccc2c1)c1cccc(F)c1-n1nccc1C(C)(C)O [XX-11, tert-butyl {3-fluoro-2-[5-(2-hydroxypropan-2-yl)-1H-pyrazol-1-yl]phenyl}quinolin-3-ylcarbamate]",chromatographic logP,[3]; [9],3.33
"CC(C)(C)OC(=O)N(c1cnc2ccccc2c1)c1ccccc1-n1nccc1CO [XX-12, tert-butyl {2-[5-(hydroxymethyl)-1H-pyrazol-1-yl]phenyl}quinolin-3-ylcarbamate]",chromatographic logP,[3]; [9],2.35
"C=C(C)c1ccnn1-c1ccccc1Oc1cnc2ccccc2c1 [drawing 46, reference compound]",Efficacy in %,[5],20%
"CC(C)n1ccc(-c2c(F)cccc2Oc2cnc3ccccc3c2)n1 [drawing 47, reference compound]",Efficacy in %,[5],68%
"C=C(C)c1ccnn1-c1ccccc1Oc1cnc2ccccc2c1 [drawing 50, reference compound]",Efficacy in %,[6],64%
"C=C(C)c1ccnn1-c1ccccc1Oc1cnc2ccccc2c1 [drawing 52, reference compound]",Efficacy in %,[7],1%
